Results: US20070020193A1, “Dronabinol compositions and methods for using same” (priority 2005, published 2007)
Values joined by “and” are separate entries in the source; they are usually repeats but may differ in a detail not shown here. Equal entries are not always repeated. “Also recorded” adds a separate entry of the source.

Legend:
healthy subjects [1] = test: Example 1: conjunctiva congestion rating; assay type: in vivo, human
Source text: (§1) Conjunctiva Congestion was rated by a trained observer on a scale of 0-3 based on the blood vessels present as follows:
(§2) 0—None (The white of the eye was not affected)
(§3) 3—Considerable (The compete white of the eye is red caused by a pattern of bigger vessels. This is associated with complaints.)
(§4) Absolute values of heart rate and conjunctive congestion scores were used to calculate changes from baseline.

healthy subjects [2] = test: Example 2: pulmonary function tests; assay type: in vivo, human
Description: Adverse events were recorded based on original descriptions from subject responses to queries. Complete medical histories and physical examinations were conducted. Vital signs were monitored, ECGs were recorded along with pulmonary function tests and laboratory examinations.
Listings of values for each subject were presented with abnormal or out of range values for vital signs, laboratory assays, ECGs, pulmonary function tests, and physical examinations. Descriptive statistics (n, mean, standard deviation (SD), minimum, median, maximum) for all clinical laboratory safety parameters, ECGs, pulmonary function tests, and vital signs were provided. ECGs and physical examinations were to be summarized in shift tables to show changes from baseline between normal and abnormal findings.

healthy subjects [3] = test: Example 1: subjective drug ratings and ARCI; assay type: in vivo, human
Source text: (§5) The subject responded to each of three questions on a scale of 0 to 100 with 0 meaning no effect/not at all and 100 meaning maximum/very much:
How much of a drug effect or high do you feel?
How much do you like the drug?
How much do you dislike the drug?
(§6) The ARCI is a true/false questionnaire developed to specifically measure the subjective effects of drugs which have diverse pharmacological actions. The […] (PCAG), morphine-benzedrine, and lysergic acid diethylamide subgroup scales were used to assess sedation, euphoria, and dysphoria. Questions from the marijuana subscale were also included.
Subjective drug ratings and cognitive measurement scores were presented as absolute values only with separate tables summarizing gender difference and age differences.

[4] = oral administration, first-pass metabolism; cited from earlier work
healthy subjects [5] = test: Example 2: subjective drug rating and ARCI-49; assay type: in vivo, human
Source text: The data for Group I and Group II were pooled and submitted to a mixed effects general linear model analysis. Two sets of analyses were done. The first was for the pre-drug conditions. The fixed effect of day and the fixed effect of condition were non-significant for all of the five scale scores, indicating similarity of pre-drug baseline score. A second analysis compared condition, the first dosing day, the last dosing day, the four visits including pre-drug, and the subjects in the analysis of variance.
as §5, §6

healthy subjects [6] = test: Example 2: heart rate (telemetry / vital signs); assay type: in vivo, human; settings: for placebo-corrected mean heart rate: 1.2 mg; for Mean increase of heart rate above baseline: last day of dosing
Source text: (§7) For Examples 1 and 2: Heart rate was obtained from the blood pressure recordings or using telemetry.
as §4
(§8) Changes from baseline in conjunctiva congestion and heart rate were compared for all time-points measured, and summarized using descriptive statistics. Subjective ratings were individually tabulated and sorted by treatment group, subject number, and time, and summarized using descriptive statistics. Separate tables were provided to summarize differences between males and females if applicable. Pharmacodynamic assessments were compared with delta-9 THC and 11-OH-THC blood concentrations and summarized using descriptive statistics.

healthy subjects [7] = test: Example 1: heart rate and blood pressure; assay type: in vivo, human
Source text: Heart rate, conjunctiva congestion, subjective ratings, and a battery of computerized cognitive tests were used to evaluate pharmacodynamics. FIG. 11a-b are plots of mean baseline adjusted heart rate for Groups I-III. FIG. 12a-c show plots of placebo corrected diastolic blood pressure. […] FIG. 14a-b present comparisons of Active versus Placebo alertness and a plot of change in self-rated alertness. FIG. 15a-b show comparisons of Active v. Placebo for calmness and a plot of change in self-rated calmness.
as §7, §4
For Example 1: All pharmacodynamic variables were evaluated using descriptive statistics for all study evaluations.

healthy subjects [8] = test: Example 2: conjunctiva congestion rating; assay type: in vivo, human
Source text: as §1, §2, §3, §8

healthy subjects [9] = system: healthy subjects; parameters: species or system human; settings: in vivo
[10] = after single dosing, both dose levels

CCCCCc1cc(O)c2c(c1)OC(C)(C)[C@@H]1CCC(C)=C[C@@H]21 [delta-9-THC, delta-9-tetrahydrocannabinol]
number of occurrences of slight congestion (healthy subjects [1]; 9.6 mg dose group): 3 | conjunctiva congestion (healthy subjects [1]; 0.3 to 7.2 mg doses): no or substantially no conjunctiva congestion | occurrence of slight conjunctiva congestion (healthy subjects [1]; each of the 3.6 and 7.2 mg doses): once | FEV1, lowest result during the study (healthy subjects [2]; one subject with below-normal pre-dose FEV1, Day 11, after six days of dosing with 1.2 mg): 63% | FEV1 at the follow-up visit (healthy subjects [2]; same single subject, 1.2 mg): 58 % of predicted | dose with maximum 'disliking' (healthy subjects [3]; Group I): 2.4 mg | dose with maximum psychoactivity ('feel the drug' scores) and highest mean 'liking' scores (healthy subjects [3]; Group I): 0.3 mg | dose with maximum 'disliking' scores and maximum 'feel the drug' scores (healthy subjects [3]; Group II): 7.2 mg | dose with maximum 'liking' scores (healthy subjects [3]; Group II): 3.6 mg | subjective drug ratings, three scales (healthy subjects [3]; Group III, 3.6 mg): difference between placebo and 3.6 mg | ARCI MBG, LSD and Amphetamine Scales (healthy subjects [3]; in vivo): No significant results | part of an orally administered dose that reaches systemic circulation [4]: 10-20% | 'feel the drug' and 'liking' scores (healthy subjects [5]; 1.2 mg, Day 1): slightly larger than those who received placebo | 'disliking' scores (healthy subjects [5]; 1.2 mg, Day 12): approximately the same or slightly higher | 'feel the drug' and 'liking' scores (healthy subjects [5]; 1.2 mg, Day 12): diminished | ARCI Morphine Benzedrine Group (MBG) scale (healthy subjects [5]; 3.6 mg, 1 hour post-dose): some MBG effect | 'feel the drug', 'liking' and 'disliking' scores versus placebo (healthy subjects [5]; 3.6 mg, Day 1): significantly larger | subjective drug rating scores (healthy subjects [5]; 3.6 mg, Day 19): still much larger than the placebo scores | ARCI Amphetamine Scale (AS) (healthy subjects [5]; Groups I and II pooled): no significant effects for condition | ARCI Benzedrine Group scale, interaction terms (healthy subjects [5]; Groups I and II pooled): significant for the visit and the condition by visit interaction terms | ARCI LSD scale (healthy subjects [5]; Groups I and II pooled): no significance for condition, day, visit, or any of the interaction terms | ARCI PCAG scale, visit and condition times visit interaction (healthy subjects [5]; Groups I and II pooled, p less than 0.001): highly significant | placebo-corrected mean heart rate (healthy subjects [6]; Day 1): limited and short-lasting increase | placebo-corrected mean heart rate (healthy subjects [6]; Day 12): no increase | duration of placebo-corrected heart rate increase post-dose (healthy subjects [6]; 3.6 mg, Day 1): at least 4 hours | placebo-corrected mean heart rate, maximum increase (healthy subjects [6]; 3.6 mg, after 19 days of dosing, by 10 minutes post-dose): approximately 10 bpm | Mean increase of heart rate above baseline (healthy subjects [6]; Group I (1.2 mg), at 0.5 hours after dosing): ≤ 12 bpm | Mean increase of heart rate above baseline (healthy subjects [6]; Group II (3.6 mg), at 5 minutes after dosing): ≤ 18 bpm | heart rate (summary) (healthy subjects [6]; after single dose inhaled administration): increased in a dose-dependent fashion | duration of effect on heart rate (healthy subjects [6]; [10]): 2 to 4 h | time of maximum effect on heart rate (healthy subjects [6]; [10]): 2 to 5 min | effect on heart rate (healthy subjects [7]; 0.3 mg dose, Groups I-II): did not differ markedly from that observed with placebo | duration of heart rate increase (healthy subjects [7]; 1.2 mg): 5 min | increase in heart rate relative to placebo (healthy subjects [7]; 1.2 mg, 5 minutes after dosing): approximately 12 bpm | duration of heart rate increase (healthy subjects [7]; 2.4 mg): about 15 minutes | largest effect on heart rate, increase compared to placebo (healthy subjects [7]; 7.2 mg): about 46 bpm | duration of heart rate increase (healthy subjects [7]; 9.6 mg): about 2.0 hours | time of return of heart rate to normal after dosing (healthy subjects [7]; Group III (elderly, 3.6 mg)): 5 min | heart rate increase (healthy subjects [7]; Group III (elderly, 3.6 mg), at 2 minutes): 10 bpm | placebo corrected diastolic and systolic blood pressure (healthy subjects [7]; across the dose levels investigated): no clear dose-relationship | duration of effect on heart rate (healthy subjects [7]; after single dosing): approximately 2 hours | time of maximum effect on heart rate (healthy subjects [7]; after single dosing): 2 to 5 min | placebo corrected heart rate (healthy subjects [7]; between 0.17 and 5 hours post dose): dose related increase | subjects with slight conjunctiva congestion (healthy subjects [8]; 1.2 mg, Day 12, 10 minutes after dosing): only one subject | time to resolution of conjunctiva congestion post-dose (healthy subjects [8]; 1.2 mg, Day 12, one subject): ≤ 4 h | conjunctiva congestion, rest of the study (healthy subjects [8]; Groups I and II (1.2 mg and 3.6 mg)): No other observation of conjunctiva congestion | Choice Reaction Time against placebo (healthy subjects [9]): significant decrement; also recorded: significant benefit | Delayed Word Recall Words Correctly Recalled, primary analysis (healthy subjects [9]): no significant effect of dose | Delayed Word Recognition Sensitivity Index, primary analysis (healthy subjects [9]): no significant effect of dose | Delayed Word Recognition Speed against placebo (healthy subjects [9]): benefits | Digit Vigilance Speed, primary analysis (healthy subjects [9]): no significant effect of dose | Digit Vigilance Targets Detected, baseline score (healthy subjects [9]): 95.6% and 96.7% and 97.4% and 98.5% | Immediate Word Recall Words Correctly Recalled, primary analysis (healthy subjects [9]): no significant effect of dose | Numeric Working Memory Sensitivity Index, primary analysis (healthy subjects [9]): no significant effect of dose | Numeric Working Memory Speed, primary analysis (healthy subjects [9]): no significant effect of dose | Picture Recognition Sensitivity Index, primary analysis (healthy subjects [9]): no significant effect of dose | Picture Recognition Speed, primary analysis (healthy subjects [9]): no dose*time interaction | Self-rated Alertness, comparisons against placebo (healthy subjects [9]): no decrements | Self-rated Calmness, primary analysis (healthy subjects [9]): no significant effect of dose | Self-rated Contentment, comparisons (healthy subjects [9]): no support for differences between the doses on either day | Simple Reaction Time, comparisons (healthy subjects [9]): did not show any significant differences | Spatial Working Memory Sensitivity Index against placebo (healthy subjects [9]): significant decrement | Spatial Working Memory Sensitivity Index, primary analysis (healthy subjects [9]): significant main effect of dose | Spatial Working Memory Speed, primary analysis (healthy subjects [9]): no significant effect of dose | Tracking Average Distance from Target, primary analysis (healthy subjects [9]): no significant effect of dose | cognitive function effects (summary) (healthy subjects [9]): Minimal cognitive function effects
